Values of other authors in patent US7074553B2, “Retrovirus associated with myelodysplastic syndromes and uses thereof” (Rush University Medical Center, priority 2000, dated 2006).

B1: G-CSF: colony-stimulating growth factor designed to stimulate proliferation of hematopoietic progenitors (protein, UniProt P09919 31-207, looked up)
Granulocyte …: TPLGPASSLPQSFLLKCLEQVRKIQGDGAALQEKLVSECATYKLCHPEELVLLGHSLGIPWAPLSSCPSQALQLAGCLSQLHSGLFLYQGLLQALEGISPELGPTLDTLQLDVADFATTIWQQMEELGMAPALQPTQGAMPAFASAFQRRAGGVLVASHLQSFLEVSYRVLRHLAQP

System: anemia and thrombocytopenia of MDS patients
Details: administered as single agents

| Molecule | improvement of the anemia and the thrombocytopenia |
| --- | --- |
| granulocyte-macrophage colony-stimulating factor [GM-CSF] | rarely improves |
| B1 | rarely improves |
